From patent US7572252B1 (priority 1995, dated 2009)

Experiment: Transdermal electrotransport goserelin delivery at two constant current densities (Example 4)
Assay type: in vivo, human
Experimental: This study was undertaken to evaluate the relationship between current density and drug flux in the transdermal electrotransport delivery of goserelin. The study involved the application of electrotransport devices, applying constant current, to 12 normal male volunteers for a duration of 8 hours.
The two electrotransport treatment regimens in this study differed only in applied current density levels. The electrotransport devices delivered goserelin through the skin from polyvinyl alcohol (PVOH)-based donor hydrogels having a skin-contact surface area of 4 cm^2. The gels contained an aqueous goserelin solution. The current density levels used in this study were 50 and 100 μA/cm^2. After an 8 hour treatment period, the electrotransport devices were removed. The skin site was then washed to remove any residual goserelin. All 12 volunteers received each treatment seven days apart.
For each treatment, seven blood samples were taken over a 24 hour period commencing with the application of current from the electrotransport devices. Serum goserelin concentrations from each patient were used to calculate mean drug flux and the mean total amount of drug delivered.

With `CC(C)C[C@H](NC(=O)[C@@H](COC(C)(C)C)NC(=O)[C@H](Cc1ccc(O)cc1)NC(=O)[C@H](CO)NC(=O)[C@H](Cc1c[nH]c2ccccc12)NC(=O)[C@H](Cc1cnc[nH]1)NC(=O)[C@@H]1CCC(=O)N1)C(=O)N[C@@H](CCCNC(=N)N)C(=O)N1CCC[C@H]1C(=O)NNC(N)=O` [goserelin] the “average transdermal goserelin flux” value (50 microA/cm^2 constant current, 4 cm^2, 8 h) was 5.8 microgram per hour, the “average transdermal flux of goserelin” value (100 microA/cm^2 constant current, 4 cm^2, 8 h) was 21.6 µg/h and the “increase in drug flux” value (current density rises from 50 to 100 μA/cm^2) was “almost four-fold increase”.
